# Measured values as given in ChEMBL document CHEMBL5604062, “ASAP - ZIKV NS2B-NS3 protease fluorescence dose response” (2024).
# Several values for one entry are separate records, joined by “and”; a condition that tells them apart may be missing. Equal values may be shown once.
# Molecular target: Nonstructural protein 3 (Zika virus, UniProt A0A024AXB9)
# Assay: Functional biochemical assay to identify treatments for viral infectious disease that targets Zika NS2B-NS3 protease. Utilizing a direct enzyme activity measurement method, reading the fluorescence intensity is used to characterize the relative potency of inhibitors as IC50.
# Design: species or system PRVABC59
# Nonstructural protein 3, sequence (A0A024AXB9 whole entry): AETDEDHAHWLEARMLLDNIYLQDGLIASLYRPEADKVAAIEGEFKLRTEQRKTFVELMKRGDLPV
row,IC50,Structure (SMILES)
1,> 99.5 µM,O=C(O)CCc1ccc(NC(=O)c2cc(Cl)cc(NC(=O)OCc3ccccc3)c2)cc1
2,0.268 µM,C#Cc1cc(Cl)cc(C(=O)Nc2ccc3c(c2)CNC3)c1
3,> 99.5 µM,c1cncc(CC2CN(Cc3n[nH]c4ccccc34)C2)c1
4,0.055 µM and 0.042 µM,CNC(=O)[C@H](Nc1ccc2c(c1)CNC2)c1cc(Cl)cc(C2CC2)c1
5,> 99.5 µM,CCn1c(=O)c(N2CC[C@@]3(CCCN3C)C2)nc2ccccc21
6,> 25 µM,Cc1c(C(=O)Nc2cccc(-c3ccc(O)nc3)c2)cc(C2CC2)n1C
7,11.5 µM,NCc1cccc(NC(=O)c2cc(Cl)cc(N3CCCC3=O)c2)c1
8,> 99.5 µM,CC(C)(CNCc1c[nH]c2ccccc12)c1cccnc1
9,> 99.5 µM,NCc1ccc(COc2ccc(-c3ccc(N)nc3)c3c2OB(O)CC3)cc1
10,> 99.5 µM,CCn1c(=O)c(N2CC[C@@H](CO)C2)nc2ccccc21
11,> 99.5 µM,CC(=O)N1CCC([C@H](NC(=O)OCc2ccccc2)C(=O)Nc2cccc(CN)c2)CC1
12,> 99.5 µM,CC(C)(C)NS(=O)(=O)c1cccc(C(=O)Nc2cccc(CN)c2)c1
13,21.2 µM,Cc1cc(C(=O)O)c(NS(=O)(=O)c2ccc(Oc3ccccc3Cl)cc2)cc1F
14,25.1 µM,O=C(Nc1ccc2c(c1)CNC2)c1ccccc1-n1cccc1
15,7.51 µM,O=C(Nc1cc(Cl)cc(C(=O)Nc2ccc([C@H]3CCCNC3)cc2)c1)OCc1ccccc1
16,> 99.5 µM,Cc1cc(F)cc(N(C)C(=O)c2ccc(C3(CN)CC3)cc2)c1
17,0.062 µM and 0.038 µM,O=C(O)CCCc1cc(NC(=O)c2cc(F)cc3[nH]ncc23)cc2c1CNC2
18,> 25 µM,C[C@H](NC(=O)c1cccc2c1CC(=O)N2)c1ccncc1F
19,> 99.5 µM,Cn1nccc1CN1CCC(NS(=O)(=O)c2ccc(Cl)cc2C(=O)O)CC1
20,> 99.5 µM,COCCNC(=O)[C@H](Nc1cccc(-c2nn[nH]n2)c1)c1cc(Cl)cc(NC(=O)OCc2ccccc2)c1
21,11.8 µM,CSC1(C(=O)N[C@H](CC(=O)Nc2cccc(CN)c2)c2ccc(OCc3ccccc3)c(Br)c2)CCC1
22,> 99.5 µM,CC(=O)Nc1cccc(-c2ccc(S(=O)(=O)Nc3ccc(Cl)cc3C(=O)O)cc2)c1
23,> 99.5 µM,CC(C)(C)c1cc(CN2CCC(c3cscn3)CC2)n[nH]1

row,IC50,Structure (SMILES)
1,0.027 µM and 0.014 µM,COCc1cc(Cl)cc([C@H](Nc2ccc3c(c2)CNC3)C(=O)NCC(F)F)c1
2,0.281 µM,O=C(Nc1ccc2c(c1)CNC2)c1cccc2[nH]ccc12
3,> 25 µM,Cc1c(C(=O)Nc2cc(C(=O)N3CCCNC(=O)C3)ccn2)cc(C2CC2)n1C
4,37.6 µM,COc1ccccc1-c1ccc(S(=O)(=O)Nc2ccc(Cl)cc2C(=O)O)cc1
5,> 25 µM,O=C(Nc1ccc2c(c1)CNC2)c1ncc(Cc2ccccc2)s1
6,> 99.5 µM,CCOC(=O)N1CCC[C@H]1c1cccc(-c2ccc3[nH]c(C(=O)O)cc3c2)c1
7,> 99.5 µM,c1ccc([C@@H]2C[C@H]3C[C@@H]2C[C@H]3NCc2n[nH]c3ccccc23)cc1
8,> 99.5 µM,O=C(Nc1cc(Cl)cc(C(=O)Nc2cncc(C(=O)O)c2)c1)OCc1ccccc1
9,> 99.5 µM,Cc1nnc(CN2CCC([C@H](NC(=O)OCc3ccccc3)C(=O)Nc3cccc(CN)c3)CC2)s1
10,0.376 µM,O=C(Nc1ccc2c(c1)CNCCC2)c1cc(Cl)cc2[nH]ncc12
11,> 99.5 µM,Cc1ccc(CNC(=O)c2cc(Cl)ccc2NS(=O)(=O)c2ccc(Oc3ccccc3Cl)cc2)s1
12,> 99.5 µM,C[C@H]1CC[C@@](Cc2nc3ccccc3[nH]2)(C(=O)Nc2cccc(CN)c2)CC1
13,> 99.5 µM,O=C(NCc1nccs1)c1sccc1Cl
14,37 µM,O=C(O)c1cc(OC2CCOCC2)c(F)cc1NS(=O)(=O)c1ccc(Oc2ccccc2Cl)cc1
15,0.032 µM and 0.017 µM,CN(c1ccc2c(c1)CNC2)[C@H](C(=O)NCC(F)F)c1cc(Cl)cc(C2CC2)c1
16,0.078 µM and 0.065 µM,O=C(NCc1ccc(F)cc1)[C@H](Nc1ccc2c(c1)CNC2)c1cc(Cl)cc2[nH]ncc12
17,> 99.5 µM,O=C(Nc1ccc2c(c1)CNC2)c1ncnc2sccc12
18,0.274 µM,O=C(Nc1ccc2c(c1)CNC2)c1cc(F)c2[nH]ccc2c1
19,> 99.5 µM,Cc1nc(CCCNCc2n[nH]c3ccccc23)cs1
20,> 25 µM,CNC(=O)C[C@H]1CC[C@@H](NC(=O)c2cccc3c2CC(=O)N3)CC1
21,> 99.5 µM,COC(=O)c1cc(Cl)ccc1NS(=O)(=O)c1ccc(Oc2ccccc2Cl)cc1
22,> 99.5 µM,C#CCn1ccnc(N2CC[C@H](CO)C2)c1=O
23,> 99.5 µM,CCn1cc(-c2cnc3ccnn3c2)nc(N2CC[C@@H](CO)C2)c1=O

# Further lines, the compound ahead of its results:
row,Structure (SMILES),IC50
1,NCc1cccc(NC(=O)[C@@H](NC(=O)OCc2ccccc2)c2ccc(OCc3nc4c(s3)COCC4)cc2)c1,65.1 µM
2,Clc1cccc([C@H](C#Cc2ccccc2)Nc2ccc3c(c2)CNC3)c1,5.26 µM
3,NCc1cccc(NC(=O)c2cc(C3CC3)n3nc(C(F)(F)F)cc3n2)c1,> 99.5 µM
4,O=C(Nc1cc(Cl)cc(C(=O)Nc2ccc([C@H]3CCNC3)cc2)c1)OCc1ccccc1,5.43 µM
5,CCc1ccc([C@@H](CC(=O)Nc2cccc(CN)c2)NC(=O)OCc2ccccc2)cc1Br,12.1 µM
6,CC(C)NC(=O)[C@H](Nc1cccc(-c2nn[nH]n2)c1)c1cc(Cl)cc(NC(=O)OCc2ccccc2)c1,60.9 µM
7,Cn1ccc(-c2n[nH]cc2CN2CCC(c3nc4ccccc4s3)CC2)n1,> 99.5 µM
8,O=C(Nc1ccc2c(c1)CNC2)c1cc(Br)cc2[nH]c([C@H]3CCCO3)nc12,0.274 µM
9,O=C(/C=C/c1ccccc1)C(=O)N1CCOCC1,> 198 µM
10,O=C(Nc1ccc2c(c1)CNC2)c1cc(Cl)ccc1-n1ccnc1,3.54 µM
11,NCc1cccc(NC(=O)c2cc(NC(=O)OCc3ccccc3)cc3c2OC(F)(F)O3)c1,> 99.5 µM
12,Fc1ncccc1OCc1cc(Cl)nc(N2CCNCC2)n1,> 99.5 µM
13,NCc1cccc(NC(=O)c2cc(N)cc(NC(=O)OCc3ccccc3)c2)c1,> 99.5 µM
14,O=C(NCc1ccco1)c1csc(Br)c1,> 99.5 µM
15,C=CC[C@H]1c2ccc(NC(=O)c3cc(Br)cc4[nH]ccc34)cc2CN1C(=O)OC(C)(C)C,> 25 µM
16,NCc1cccc(NC(=O)[C@H](NC(=O)OCc2ccccc2)C2CCN(C3CCCC3)CC2)c1,> 99.5 µM
17,CN(C)Cc1cccc(NC(=O)[C@H](NC(=O)OCc2ccccc2)c2ccc(OCc3ccccc3)cc2)c1,> 99.5 µM
18,CC(C)c1ccc([C@@H](NC(=O)OCc2ccccc2)C(=O)Nc2cccc(CN)c2)cc1,87.7 µM
19,Cn1cc(-c2cccc([C@H](NC(=O)OCc3ccccc3)C(=O)Nc3cccc(CN)c3)c2)cn1,> 99.5 µM
20,CCn1c(=O)c(N2CC[C@H](CO)C2)nc2cc(C(=O)O)ccc21,> 99.5 µM

row,Structure (SMILES),IC50
1,O=C(O)c1cc(Cl)ccc1NS(=O)(=O)c1ccc(Oc2ccccc2Cl)cc1,35.1 µM
2,O=C(Nc1cc(Cl)cc(C(=O)Nc2ccc(OC3CNC3)cc2)c1)OCc1ccccc1,5.64 µM
3,O=Cc1ccc(N2CCC(C(=O)N3CCN(CCc4ccccc4)CC3)CC2)cc1,> 50.2 µM
4,CCn1c(=O)c(N2CCC[C@@H]2c2cncn2C)nc2ccccc21,> 99.5 µM
5,CCOc1cccc(-c2ccc(S(=O)(=O)Nc3ccc(Cl)cc3C(=O)O)cc2)c1,14.7 µM and 13.8 µM
6,COc1ccc(COc2ccc(S(=O)(=O)Nc3ccc(Cl)cc3C(=O)O)cc2)nc1,> 99.5 µM
7,Cc1nnnn1Cc1ncc(Br)s1,> 99.5 µM
8,COCCCC(=O)N1CCC([C@H](NC(=O)OCc2ccccc2)C(=O)Nc2cccc(CN)c2)CC1,> 99.5 µM
9,CCc1cc(C(=O)Nc2cccc(-n3nn[nH]c3=O)c2)sc1-c1ccc(Cl)cc1,24.7 µM
10,NCc1cccc(NC(=O)[C@H](NC(=O)OCc2ccccc2)c2ccc(CO)cc2)c1,> 99.5 µM
11,NCc1cccc(NC(=O)[C@@H](NS(=O)(=O)CCc2ccccc2)c2ccc(OCc3ccccc3)cc2)c1,34 µM
12,O=C1NCc2ccccc2C12CCN(Cc1cc3ccc(F)cc3[nH]1)CC2,> 99.5 µM
13,Cn1ccnc1C(=O)N[C@H](C(=O)Nc1cccc(CN)c1)c1ccc(OCc2ccccc2)cc1,> 99.5 µM
14,CN1[C@@H]2CCC[C@H]1C[C@@H](NC(=O)C1CCN(c3ccc(C=O)cc3)CC1)C2,> 99.9 µM
15,O=C(O)c1cc(Cl)c(Cl)cc1NS(=O)(=O)c1ccc(Oc2ccccc2Cl)cc1,9.06 µM
16,c1nc(C2CCN(Cc3cc(C4CCOCC4)[nH]n3)CC2)cs1,> 99.5 µM
17,O=S(=O)(c1cccs1)N1CCN(CC=Cc2ccccc2)CC1,> 99.5 µM
18,c1cncc([C@@H]2CN(Cc3c[nH]c4ccccc34)CCO2)c1,> 99.5 µM
19,NCc1cccc(NC(=O)c2cc(Cl)ccc2Oc2cccc(Cl)c2)c1,61.7 µM
20,NCc1cccc(NC(=O)c2cc(Cl)cc3c2CCC3)c1,5.98 µM

row,Structure (SMILES),IC50
1,CCNC(=O)c1ccnc(NC(=O)c2cc(C3CC3)n(C)c2C)c1,> 25 µM
2,C[C@H]1CCN1C(=O)Cn1ccnc(N2CC[C@H](CO)C2)c1=O,> 99.5 µM
3,CCc1cc(C)nc(C2CCN(Cc3c[nH]c4ccccc34)CC2)n1,59.4 µM
4,CNC(=O)[C@H](Nc1ccc2c(c1)C(=O)OC2)c1cc(Cl)cc2[nH]ncc12,> 25 µM
5,Cc1cc(C(=O)Nc2cc(-c3cccnc3)ccn2)nn1CCN,> 25 µM
6,CC[C@@H](Cc1nnn[nH]1)c1ccc(NC(=O)c2cc(Cl)cc(NC(=O)OCc3ccccc3)c2)cc1,18.7 µM
7,COCCNC(=O)[C@H](Nc1cccc([C@H]2CCOC2)c1)c1cc(F)cc2[nH]ccc12,> 25 µM
8,CNC(=O)[C@H](Nc1cccc(C2(C(=O)O)CCC2)c1)c1cc(Cl)cc(C2CC2)c1,> 99.5 µM
9,CCn1c(=O)c(N2CC[C@H](c3nccn3C)C2)nc2ccccc21,> 99.5 µM
10,C[C@@H](N)c1ccc(NC(=O)c2cc(Cl)cc(NC(=O)OCc3ccccc3)c2)cc1,14.6 µM
11,N#Cc1cc(C(=O)Nc2ccc3c(c2)CNC3)cc(C(F)(F)F)c1,0.533 µM
12,O=C(NCC(F)F)[C@H](Nc1ccc2c(c1)CNC2)c1cc(Cl)cc(C2CC2)c1,0.024 µM and 0.023 µM and 0.062 µM and 0.015 µM and 0.017 µM and 0.065 µM
13,CN(C)C(=O)CCCc1nc2c(C(=O)Nc3ccc4c(c3)CNC4)cc(Cl)cc2[nH]1,0.28 µM
14,NCc1cccc(NC(=O)[C@H](NC(=O)OCc2ccccc2)c2cccc(OCc3ncccn3)c2)c1,> 99.5 µM
15,Cc1csc(N2CCN(Cc3c[nH]c4ccccc34)CC2)n1,> 99.5 µM
16,OC[C@H](Cc1cccnc1)NCc1c[nH]c2ccccc12,> 99.5 µM
17,NC[C@]12CC[C@](NC(=O)c3cc(Cl)cc(NC(=O)OCc4ccccc4)c3)(CO1)C2,49.4 µM
18,O=C(O)C1CCC2(CC1)CC(Cc1c[nH]c3ccc(Cl)cc13)C2 (centres undefined),> 99.5 µM
